The source of these data is ChEMBL document CHEMBL1681668, “Discovery of INCB10820/PF-4178903, a potent, selective, and orally bioavailable dual CCR2 and CCR5 antagonist” (Bioorg Med Chem Lett, 2011).

Bounds are passed on as bounds.

As a reminder, the IC50 is the concentration that gives 50% inhibition. The half-life is how long it takes for the measured level to halve. For orientation: bioavailability means the share of a dose that reaches the circulation, judged against a reference dose that is usually intravenous. Broadly, the AUC is concentration integrated over time. By inhibition is commonly meant the percentage by which the read-out fell short of the control.

In data set [1] the target is C-C chemokine receptor type 5 (Homo sapiens, UniProt P51681). Description: Displacement of labeled MIP-1beta from human CCR5 receptor.
A short description of data set [2]: Half life in rat at 5 mg/kg, iv. Format: ADME, organism-based. Details: dose 5 mg/kg, route intravenous. Conditions: in vivo.
The nature of data set [3]: Half life in human liver microsomes. The format is ADME, Microsome. A general note: Liver microsomes are vesicles of endoplasmic reticulum, rich in cytochrome P450 enzymes.
Data set [4] is described as follows: Oral bioavailability in rat at 10 mg/kg. The format is ADME, organism-based. Conditions: in vivo.
A short description of data set [5]: Volume of distribution at steady state in cynomolgus monkey at […], iv and 10 mg/kg, po. The format is ADME, organism-based, Macaca fascicularis. Particulars: in vivo, read-out: Vdss.
The nature of data set [6]: AUC in cynomolgus monkey at 10 mg/kg, po. Format: ADME, organism-based, Macaca fascicularis. Particulars: plasma. Details: dose 10 mg/kg, route oral.
Data set [7] is described as follows: Volume of distribution at steady state in rat at 5 mg/kg, iv and 10 mg/kg, po. Format: ADME, organism-based. Particulars: in vivo, read-out: Vdss.
Data set [8] is described as follows: Oral bioavailability in cynomolgus monkey at 10 mg/kg. The format is ADME, organism-based, Macaca fascicularis. Conditions: in vivo.
Data set [9] can be described thus: AUC in rat at 10 mg/kg, po. The format is ADME, organism-based. Also on record: dose 10 mg/kg, route oral. Particulars: plasma.
The nature of data set [10]: Clearance in cynomolgus monkey at […], iv and 10 mg/kg, po. Format: ADME, organism-based, Macaca fascicularis. Conditions: in vivo.
The nature of data set [11]: Half life in cynomolgus monkey at […], iv. Also on record: dose 2.5 mg/kg, route intravenous. The format is ADME, organism-based, Macaca fascicularis. Conditions: in vivo.
Data set [12] is described as follows: Clearance in rat at 5 mg/kg, iv and 10 mg/kg, po. Format: ADME, organism-based. Particulars: in vivo.
The target of data set [13] is C-C chemokine receptor type 2 (Homo sapiens) (UniProt P41597). In words: Displacement of [125I]MCP1 from human CCR2 at 1000 nM after 30 mins by gamma counting.
Sequence of C-C chemokine receptor type 2 (Homo sapiens) (P41597 whole entry, looked up): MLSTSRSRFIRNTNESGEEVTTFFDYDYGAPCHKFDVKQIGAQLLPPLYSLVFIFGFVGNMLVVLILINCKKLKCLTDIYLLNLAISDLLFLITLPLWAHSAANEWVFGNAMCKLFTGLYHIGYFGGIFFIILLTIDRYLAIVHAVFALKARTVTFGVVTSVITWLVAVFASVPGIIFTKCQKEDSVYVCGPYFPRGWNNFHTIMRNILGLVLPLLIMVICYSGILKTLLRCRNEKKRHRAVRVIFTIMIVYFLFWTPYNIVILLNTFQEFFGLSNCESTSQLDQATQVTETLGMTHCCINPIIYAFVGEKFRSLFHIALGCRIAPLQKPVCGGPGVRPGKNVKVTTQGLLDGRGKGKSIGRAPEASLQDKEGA

Sequence of C-C chemokine receptor type 5 (P51681 whole entry): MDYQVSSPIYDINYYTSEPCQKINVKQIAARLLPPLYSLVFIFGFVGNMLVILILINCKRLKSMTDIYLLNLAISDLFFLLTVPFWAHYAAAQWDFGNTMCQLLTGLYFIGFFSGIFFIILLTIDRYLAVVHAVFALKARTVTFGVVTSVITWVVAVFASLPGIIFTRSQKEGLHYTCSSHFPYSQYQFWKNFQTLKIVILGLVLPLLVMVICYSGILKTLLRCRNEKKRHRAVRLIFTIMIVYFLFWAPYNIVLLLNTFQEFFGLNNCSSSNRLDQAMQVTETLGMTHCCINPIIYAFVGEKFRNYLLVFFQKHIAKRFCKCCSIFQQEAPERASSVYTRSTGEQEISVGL

Consider `CCO[C@@H]1COCC[C@@H]1N[C@@H]1CC[C@@](C(=O)N2CCN(c3cccc(C(F)(F)F)c3)CC2)(C(C)C)C1`, for which the IC50 in data set [1] came out at 22.5 nM. As to `CO[C@@H]1COCC[C@@H]1N[C@@H]1CC[C@@](C(=O)N2CCN(c3cc(C(F)(F)F)ccn3)CC2)(C(C)C)C1`, the half-life was 5 h in data set [2], 1.55 h in data set [3] and 3 h in [11]. Also, the bioavailability in [4] was found to be 84%; in [8] it was 57%. Further, the Vd in [5] came to 6.2 L/kg; in [7], 17 L/kg. For the same compound, the results for the AUC in data set [6] and in [9] were 5.3 µM·h and 3 µM·h, respectively. For the same compound, the clearance is 36.7 mL/min/kg in data set [10] and 63.3 mL/min/kg in [12]. With `CC(C)[C@]1(C(=O)N2CCN(c3cccc(C(F)(F)F)c3)CC2)CC[C@@H](N[C@@H]2CCOC[C@H]2C)C1`, in data set [1], the IC50 was > 1000 nM. Same read-out and setting: the result for `CC(C)[C@]1(C(=O)N2CCN(c3cccc(C(F)(F)F)c3)CC2)CC[C@@H](NC2CCOCC2)C1` reads 283 nM; that for `CC[C@H]1COCC[C@H]1N[C@@H]1CC[C@@](C(=O)N2CCN(c3cccc(C(F)(F)F)c3)CC2)(C(C)C)C1`, 312 nM.

Regarding `CO[C@@H]1COCC[C@@H]1N[C@@H]1CC[C@](CC(F)(F)F)(C(=O)N2CCN(c3cc(C(F)(F)F)ccn3)CC2)C1`, in data set [1], the IC50 was 8.4 nM. In turn, `CC[C@@H]1COCC[C@H]1N[C@@H]1CC[C@@](C(=O)N2CCN(c3cccc(C(F)(F)F)c3)CC2)(C(C)C)C1` displayed an IC50 in [1] of 1000 nM. For `CC[C@H]1COCC[C@@H]1N[C@@H]1CC[C@@](C(=O)N2CCN(c3cccc(C(F)(F)F)c3)CC2)(C(C)C)C1`, the concentration for half-maximal inhibition (IC50) in data set [1] was 546 nM. Same read-out and setting: the result for `CO[C@@H]1COCC[C@@H]1N[C@@H]1CC[C@@](C(=O)N2CCN(c3cccc(C(F)(F)F)c3)CC2)(C(C)C)C1` reads 23 nM; that for `COC[C@@H]1COCC[C@@H]1N[C@@H]1CC[C@@](C(=O)N2CCN(c3cccc(C(F)(F)F)c3)CC2)(C(C)C)C1`, 201 nM; that for `CC[C@@H]1COCC[C@@H]1N[C@@H]1CC[C@@](C(=O)N2CCN(c3cccc(C(F)(F)F)c3)CC2)(C(C)C)C1`, 18 nM. The compound `CC(C)[C@]1(C(=O)N2CCN(c3ccc(C(F)(F)F)cc3)CC2)CC[C@@H](NC2CCOCC2)C1` registered an inhibition in data set [13] of 40%. In [13], `CC(C)[C@]1(C(=O)N2CCC(c3ccccc3)CC2)CC[C@@H](NC2CCOCC2)C1` yielded an inhibition of 0%.

The compound `CC(C)[C@]1(C(=O)N2CCN(c3cccc(C(F)(F)F)c3)CC2)CC[C@@H](N[C@@H]2CCOC[C@@H]2C)C1` registered a 50% inhibitory concentration (IC50) in data set [1] of 108 nM. Take `CC(C)[C@]1(C(=O)N2CCN(c3cccc(C(F)(F)F)c3)CC2)CC[C@@H](N[C@H]2CCOC[C@@H]2C)C1`: the half-inhibitory concentration (IC50) in data set [1] is 370 nM. In data set [1], `CO[C@H]1COCC[C@H]1N[C@@H]1CC[C@@](C(=O)N2CCN(c3cccc(C(F)(F)F)c3)CC2)(C(C)C)C1` showed a half-maximal inhibitory concentration (IC50) of 204 nM.

Compound `COC[C@H]1COCC[C@H]1N[C@@H]1CC[C@@](C(=O)N2CCN(c3cccc(C(F)(F)F)c3)CC2)(C(C)C)C1` came in with a half-maximal inhibitory concentration (IC50) in [1] of 572 nM. The same measure, in the same setting: the result for `CC(C)[C@]1(C(=O)N2CCN(c3cccc(C(F)(F)F)c3)CC2)CC[C@@H](N[C@H]2CCOC[C@H]2C)C1` reads 77 nM; that for `CCO[C@H]1COCC[C@H]1N[C@@H]1CC[C@@](C(=O)N2CCN(c3cccc(C(F)(F)F)c3)CC2)(C(C)C)C1`, 206 nM.

Take `CO[C@@H]1COCC[C@@H]1N[C@@H]1CC[C@@](C(=O)N2CCN(c3cccc(C(F)(F)F)n3)CC2)(C(C)C)C1`: in data set [1], the IC50 amounted to 26.5 nM. Compound `CC(C)[C@]1(C(=O)N2CCN(c3ccccc3C(F)(F)F)CC2)CC[C@@H](NC2CCOCC2)C1` gave an inhibition in data set [13] of 19%.
